Measurements reported in patent US20260232767A1, “INTERLEUKIN-23 RECEPTOR ANTAGONIST PEPTIDES FOR USE IN THE TREATMENT OF PSORIASIS” (Janssen Pharmaceutica NV, priority 2023, published 2026).

Test system: subjects with moderate-to-severe plaque psoriasis
Experiment: Safety, adverse events, Example 2 through Week 56
Type: in vivo, human
Text: The LTE safety analysis was based on randomized participants in Example who entered the present long-term extension study and received at least one dose of study intervention (including a partial dose) during the study period.

[1] = 100 mg BID, Week 16 through Week 56
[2] = 100 mg BID, LTE Safety analysis set

CC(=O)NCCCC[C@@H]1NC(=O)[C@H](Cc2c[nH]c3c(C)cccc23)NC(=O)[C@H]([C@@H](C)O)NC(=O)[C@H](CC(N)=O)NC(=O)[C@@H](NC(C)=O)C(C)(C)SSC(C)(C)[C@@H](C(=O)N[C@@H](Cc2ccc(OCCN)cc2)C(=O)N[C@@H](Cc2ccc3ccccc3c2)C(=O)NC2(C(=O)N[C@@H](CCC(=O)O)C(=O)N[C@@H](CC(N)=O)C(=O)N[C@@H](Cc3cccnc3)C(=O)N(C)CC(N)=O)CCOCC2)NC1=O [IL-23 receptor antagonist peptide, Ac-[Pen]*-N-T-[W(7-Me)]-[Lys(Ac)]-[Pen]*-Phe[4-(2-aminoethoxy)]-[2-Nal]-[THP]-E-N-[3-Pal]-Sarc-NH2 (*[Pen]-[Pen]* formdisulfidebond)]
Renal mass: number of subjects (50 mg QD, through Week 56): 0
Respiratory, thoracic and mediastinal disorders: % of subjects (50 mg QD, through Week 56): (4.7%)
Respiratory, thoracic and mediastinal disorders: number of subjects (50 mg QD, through Week 56): 2
Retinal vein occlusion: number of subjects (50 mg QD, through Week 56): 0
Rhinorrhoea: number of subjects (50 mg QD, through Week 56): 0
Seasonal allergy: % of subjects (50 mg QD, through Week 56): (2.3%)
Seasonal allergy: number of subjects (50 mg QD, through Week 56): 1
Skin and subcutaneous tissue disorders: % of subjects (50 mg QD, through Week 56): (9.3%)
Skin and subcutaneous tissue disorders: number of subjects (50 mg QD, through Week 56): 4
Skin laceration: number of subjects (50 mg QD, through Week 56): 0
Skin papilloma: % of subjects (50 mg QD, through Week 56): (2.3%)
Skin papilloma: number of subjects (50 mg QD, through Week 56): 1
Social circumstances: % of subjects (50 mg QD, through Week 56): (2.3%)
Social circumstances: number of subjects (50 mg QD, through Week 56): 1
Steatohepatitis: number of subjects (50 mg QD, through Week 56): 0
Subjects with AE leading to discontinuation: Abdominal discomfort (50 mg QD, through Week 56): 0
Subjects with AE leading to discontinuation: Alanine aminotransferase increased (50 mg QD, through Week 56): 0
Subjects with AE leading to discontinuation: Aspartate aminotransferase increased (50 mg QD, through Week 56): 0
Subjects with AE leading to discontinuation: Asthenia (50 mg QD, through Week 56): 0
Subjects with AE leading to discontinuation: Chills (50 mg QD, through Week 56): 0
Subjects with AE leading to discontinuation: Ear and labyrinth disorders (50 mg QD, through Week 56): 0
Subjects with AE leading to discontinuation: Gamma-glutamyltransferase increased (50 mg QD, through Week 56): 0
Subjects with AE leading to discontinuation: General disorders and administration site conditions (50 mg QD, through Week 56): 0
Subjects with AE leading to discontinuation: Headache (50 mg QD, through Week 56): 0
Subjects with AE leading to discontinuation: Insomnia (50 mg QD, through Week 56): 0
Subjects with AE leading to discontinuation: Investigations (50 mg QD, through Week 56): 0
Subjects with AE leading to discontinuation: Nervous system disorders (50 mg QD, through Week 56): 0
Subjects with AE leading to discontinuation: Proctalgia (50 mg QD, through Week 56): 0
Subjects with AE leading to discontinuation: Psoriasis (50 mg QD, through Week 56): 0
Subjects with AE leading to discontinuation: Psychiatric disorders (50 mg QD, through Week 56): 0
Subjects with AE leading to discontinuation: Skin and subcutaneous tissue disorders (50 mg QD, through Week 56): 0
Subjects with AE leading to discontinuation: Suicide attempt (50 mg QD, through Week 56): 0
Subjects with AE leading to discontinuation: Transaminases increased (50 mg QD, through Week 56): 0
Subjects with AE leading to discontinuation: Vertigo (50 mg QD, through Week 56): 0
Subjects with AE leading to discontinuation: Vomiting (50 mg QD, through Week 56): 0
Subjects with AE leading to discontinuation: Weight increased (50 mg QD, through Week 56): 0
Subjects with COVID-19 associated AE: SARS-CoV-2 test positive (50 mg QD, through Week 56): 0
Subjects with treatment-emergent serious AE: COVID-19 (50 mg QD, through Week 56): 0
Subjects with treatment-emergent serious AE: Cerebrovascular accident (50 mg QD, through Week 56): 0
Subjects with treatment-emergent serious AE: Diverticulitis (50 mg QD, through Week 56): 0
Subjects with treatment-emergent serious AE: Injury, poisoning and procedural complications (50 mg QD, through Week 56): 0
Subjects with treatment-emergent serious AE: Intervertebral disc protrusion (50 mg QD, through Week 56): 0
Subjects with treatment-emergent serious AE: Ligament injury (50 mg QD, through Week 56): 0
Subjects with treatment-emergent serious AE: Neoplasms benign, malignant and unspecified (incl cysts and polyps) (50 mg QD, through Week 56): 0
Subjects with treatment-emergent serious AE: Nervous system disorders (50 mg QD, through Week 56): 0
Subjects with treatment-emergent serious AE: Psychiatric disorders (50 mg QD, through Week 56): 0
Subjects with treatment-emergent serious AE: Respiratory, thoracic and mediastinal disorders (50 mg QD, through Week 56): 0
Subjects with treatment-emergent serious AE: Suicide attempt (50 mg QD, through Week 56): 0
Subjects with treatment-emergent serious AE: Tonsillar hypertrophy (50 mg QD, through Week 56): 0
Subjects with treatment-emergent serious AE: Uterine leiomyoma (50 mg QD, through Week 56): 0
Subjects with treatment-emergent serious AE: Ventricular dysfunction (50 mg QD, through Week 56): 0
Suicide attempt: number of subjects (50 mg QD, through Week 56): 0
Sunburn: number of subjects (50 mg QD, through Week 56): 0
Thrombocytopenia: number of subjects (50 mg QD, through Week 56): 0
Thrombocytosis: number of subjects (50 mg QD, through Week 56): 0
Tonsillar hypertrophy: number of subjects (50 mg QD, through Week 56): 0
Tooth fracture: number of subjects (50 mg QD, through Week 56): 0
Type 2 diabetes mellitus: number of subjects (50 mg QD, through Week 56): 0
Urinary tract disorder: number of subjects (50 mg QD, through Week 56): 0
Uterine leiomyoma: number of subjects (50 mg QD, through Week 56): 0
Vascular disorders: % of subjects (50 mg QD, through Week 56): (2.3%)
Vascular disorders: number of subjects (50 mg QD, through Week 56): 1
Ventricular dysfunction: number of subjects (50 mg QD, through Week 56): 0
Vertigo: number of subjects (50 mg QD, through Week 56): 0
Vitamin D deficiency: number of subjects (50 mg QD, through Week 56): 0
Number of subjects with treatment-emergent AE: Cholelithiasis [1]: 0
Number of subjects with treatment-emergent AE: Ear and labyrinth disorders [1]: 0
Number of subjects with treatment-emergent AE: Endocrine disorders [1]: 0
Number of subjects with treatment-emergent AE: Eye disorders [1]: 0
Number of subjects with treatment-emergent AE: Eyelid skin dryness [1]: 0
Number of subjects with treatment-emergent AE: Goiter [1]: 0
Number of subjects with treatment-emergent AE: Hepatobiliary disorders [1]: 0
Number of subjects with treatment-emergent AE: Hypertransaminasemia [1]: 0
Number of subjects with treatment-emergent AE: Immune system disorders [1]: 1
Number of subjects with treatment-emergent AE: Insomnia [1]: 0
Number of subjects with treatment-emergent AE: Ocular cyst [1]: 0
Number of subjects with treatment-emergent AE: Psychiatric disorders [1]: 0
Number of subjects with treatment-emergent AE: Retinal vein occlusion [1]: 0
Number of subjects with treatment-emergent AE: Seasonal allergy [1]: 1
Number of subjects with treatment-emergent AE: Vertigo [1]: 0
Subjects with treatment-emergent AE: Immune system disorders (%) [1]: (2.6%)
Subjects with treatment-emergent AE: Seasonal allergy (%) [1]: (2.6%)
Subjects who discontinued study agent because of 1 or more adverse events [2]: 0
Subjects with 1 or more Serious Infections and infestations [2]: 0
Subjects with adverse event: Arthralgia [2]: 0
Subjects with adverse event: Bronchitis [2]: 0
Subjects with adverse event: Headache [2]: 0
Subjects with adverse event: Meniscus injury [2]: 0
Subjects with adverse event: Sinusitis [2]: 0
Subjects with adverse event: Vomiting [2]: 0
Subjects with serious adverse event: Cerebrovascular accident [2]: 0
Subjects with serious adverse event: Coronary artery disease [2]: 0
Subjects with serious adverse event: Diverticulitis [2]: 0
Subjects with serious adverse event: Foot deformity [2]: 0
Subjects with serious adverse event: Intervertebral disc protrusion [2]: 0
Subjects with serious adverse event: Ligament injury [2]: 0
Subjects with serious adverse event: Non-cardiac chest pain [2]: 0
Subjects with serious adverse event: Tonsillar hypertrophy [2]: 0
Subjects with serious adverse event: Ventricular dysfunction [2]: 0
Subjects with 1 or more treatment-emergent adverse events leading to discontinuation of study agent (100 mg BID, Week 16-56): 0
Subjects with AE leading to discontinuation: Alanine aminotransferase increased (100 mg BID, Week 16-56): 0
Subjects with AE leading to discontinuation: Aspartate aminotransferase increased (100 mg BID, Week 16-56): 0
Subjects with AE leading to discontinuation: Asthenia (100 mg BID, Week 16-56): 0
Subjects with AE leading to discontinuation: Chills (100 mg BID, Week 16-56): 0
Subjects with AE leading to discontinuation: Ear and labyrinth disorders (100 mg BID, Week 16-56): 0
Subjects with AE leading to discontinuation: Gamma-glutamyltransferase increased (100 mg BID, Week 16-56): 0
Subjects with AE leading to discontinuation: Gastrointestinal disorders (100 mg BID, Week 16-56): 0
Subjects with AE leading to discontinuation: General disorders and administration site conditions (100 mg BID, Week 16-56): 0
Subjects with AE leading to discontinuation: Headache (100 mg BID, Week 16-56): 0
Subjects with AE leading to discontinuation: Insomnia (100 mg BID, Week 16-56): 0
Subjects with AE leading to discontinuation: Investigations (100 mg BID, Week 16-56): 0
Subjects with AE leading to discontinuation: Nervous system disorders (100 mg BID, Week 16-56): 0
Subjects with AE leading to discontinuation: Proctalgia (100 mg BID, Week 16-56): 0
Subjects with AE leading to discontinuation: Psoriasis (100 mg BID, Week 16-56): 0
Subjects with AE leading to discontinuation: Psychiatric disorders (100 mg BID, Week 16-56): 0
Subjects with AE leading to discontinuation: Skin and subcutaneous tissue disorders (100 mg BID, Week 16-56): 0
Subjects with AE leading to discontinuation: Vertigo (100 mg BID, Week 16-56): 0
Subjects with AE leading to discontinuation: Vomiting (100 mg BID, Week 16-56): 0
Subjects with treatment-emergent AE: Arthralgia (100 mg BID, Week 16-56): 0
Subjects with treatment-emergent AE: Bronchitis (100 mg BID, Week 16-56): 0
Subjects with treatment-emergent AE: Gastrointestinal disorders (100 mg BID, Week 16-56): 0
